Laboratory results from patent publication US6541506B1, “Antifungal enediynes” (Phytera Incorporated, priority 1999, dated 2003).
Converted amounts (≈) assume the structure as drawn. “And” between values parts separate entries of the source, which are not always exact repeats. Identical values can stand only once.

Tests used:
[1] = test system: M. canis; assay: Dermatophyte growth inhibition (microdilution, NCCLS M27A), M. canis; type: cell-based, Microsporum canis; details: M. canis, four days at 35° C., visual inspection
Protocol: (§1) The compounds of the invention are also effective against dermatophytes. Testing was performed using a microdilution method based on the NCCLS M27A antifungal protocol. Compounds to be tested were prepared in DMSO and diluted to the appropriate concentration in RPMI 1640 medium (the dermatophyte growth medium). An inoculum of each test organism was prepared from oatmeal agar plates to contain 0.5-2.5×10^3 conidia/mL. One hundred microliters of the inoculum was added to each well of a 96-well microtiter plate containing 4 μL of a test compound and 96 μL of RPMI 1640. Terbinafine (sold under the brand name Lamisil®) was used as a positive control.

[2] = test system: C. albicans DSY1024; assay: Candida growth inhibition (XTT), C. albicans DSY1024; type: cell-based
Protocol: (§2) There are numerous assays that can be used to measure the inhibition of growth of a fungus such as Candida. In one example, cultures of Candida, e.g., C. albicans strains DSY1024 and SC5314, C. krusei ATCC 6258, and C. glabrata ATCC 90030, are subcultured from cryopreserved stocks onto Sabouraud's dextrose agar plates. Blastoconidia are suspended into RPMI-MOPS medium and inoculated (500 cfu/well) into 96-well plates containing test compounds in a final volume of 100 μL/well. After 22 hours at 35° C., 25 μL of XTT (2,3-bis(2-methoxy-4-nitro-5-sulfophenyl)-5-(phenylamino)carbonyl]-2H-tetrazolium hydroxide), (100 μg/mL) with PMS (phenazine methyl sulfate, 5 μM) are added to each well, followed by 2 hours of shaking. Growth is assessed spectrophotometrically by measuring the appearance of soluble formazan stain at 450 nm using an Emax microplate reader. Validity of the assay is confirmed by determination of the C. albicans minimum inhibitory concentration (MIC) for known antifungal agents such as amphotericin B, 5-flucytosine, fluconazole, nikkomycin Z, and polyoxin D.
LP416E8 (AC-05081-T4-3) was an organic extract of a manipulated plant cell culture from A. corsicum.

[3] = test system: C. albicans SC5314; assay: Candida growth inhibition (XTT), C. albicans SC5314; type: cell-based
Protocol: as §2

[4] = test system: T. rubrum; assay: Dermatophyte growth inhibition (microdilution, NCCLS M27A), T. rubrum; type: cell-based, Trichophyton rubrum; details: T. rubrum, four days at 35° C., visual inspection
Protocol: as §1

[5] = test system: Candida; assay: Anti-Candida activity by backbone length; type: cell-based; details: X=7
From the text: The variable X denotes the length of a saturated carbon backbone. The antifungal activity of the claimed compounds changes in part based on the length of this backbone. […] Preferably, X is an integer between 5 and 7, inclusive, although longer carbon chains (X=8-10) may preserve or increase antifungal activity.

[6] = test system: T. tonsurans; assay: Dermatophyte growth inhibition (microdilution, NCCLS M27A), T. tonsurans; type: cell-based; details: T. tonsurans, four days at 35° C., visual inspection
Protocol: as §1

[7] = test system: T. mentagrophytes; assay: Dermatophyte growth inhibition (microdilution, NCCLS M27A), T. mentagrophytes; type: cell-based; details: T. mentagrophytes, four days at 35° C., visual inspection
Protocol: as §1

[8] = test system: C. albicans A26; assay: Candida growth inhibition, C. albicans A26; type: cell-based
Protocol: as §2

[9] = test system: C. tropicalis 750; assay: Candida growth inhibition, C. tropicalis 750; type: cell-based
Protocol: as §2
(§3) Using the cell growth assay described herein, Compound 1 was tested for its ability to inhibit growth of C. albicans, C. kefyr, C. tropicalis, C. krusei, and C. glabrata.

[10] = test system: A. fumigatus 8001; assay: Anti-cell growth activity, A. fumigatus 8001; type: cell-based, Aspergillus fumigatus
Protocol: (§4) The anti-cell growth activity of Compound 1 on other fungal strains, as well as bacterial strains and cultured mammalian cells, was also tested (Table 3). […] Bacterial cell growth and mammalian cell growth was inhibited at substantially higher concentrations of Compound 1.

[11] = test system: HFF cells; assay: Anti-cell growth activity, cultured mammalian HFF cells; type: cell-based
Protocol: as §4

[12] = test system: E. coli 700; assay: Anti-cell growth activity, E. coli 700; type: cell-based
Protocol: as §4

[13] = test system: C. glabrata 95-2425; assay: Candida growth inhibition, C. glabrata 95-2425; type: cell-based
Protocol: as §2, §3

[14] = test system: S. cerevisiae 2229-5C; assay: Anti-cell growth activity, S. cerevisiae 2229-5C; type: cell-based
Protocol: as §4

[15] = test system: E. faecalis 29212; assay: Anti-cell growth activity, E. faecalis 29212; type: cell-based
Protocol: as §4

[16] = test system: C. albicans 90028; assay: Candida growth inhibition, C. albicans 90028; type: cell-based
Protocol: as §2

[17] = test system: S. cerevisiae AD1-9; assay: Anti-cell growth activity, S. cerevisiae AD1-9; type: cell-based
Protocol: as §4

[18] = test system: C. krusei 6258; assay: Candida growth inhibition, C. krusei 6258; type: cell-based
Protocol: as §2, §3

[19] = test system: C. albicans UTR-14; assay: Candida growth inhibition, C. albicans UTR-14; type: cell-based; details: C. albicans UTR-14, fluconazole-resistant strain
Protocol: as §2, §3

[20] = test system: C. tropicalis 623-20; assay: Candida growth inhibition, C. tropicalis 623-20; type: cell-based
Protocol: as §2, §3

[21] = test system: other fungal strains; assay: Anti-cell growth activity on other fungal strains (summary); type: cell-based; details: range over other fungal strains of Table 3
Protocol: as §4

[22] = test system: C. albicans, C. kefyr, C. tropicalis, C. krusei, and C. glabrata; assay: Candida growth inhibition, all tested strains (summary); type: cell-based, Candida spp.; details: range over all tested strains incl. fluconazole-resistant 93-1226 and UTR-14
Protocol: as §2, §3

[23] = test system: C. glabrata 95-2421; assay: Candida growth inhibition, C. glabrata 95-2421; type: cell-based
Protocol: as §2, §3

[24] = test system: C. keyfer 46764; assay: Candida growth inhibition, C. keyfer 46764; type: cell-based, C. kefyr
Protocol: as §2, §3

[25] = test system: C. krusei 97-1037; assay: Candida growth inhibition, C. krusei 97-1037; type: cell-based
Protocol: as §2, §3

[26] = test system: C. albicans #64; assay: Candida growth inhibition, C. albicans #64; type: cell-based
Protocol: as §2, §3

[27] = test system: C. glabrata 90030; assay: Candida growth inhibition, C. glabrata 90030; type: cell-based
Protocol: as §2, §3

[28] = test system: C. tropicalis 97-1037; assay: Candida growth inhibition, C. tropicalis 97-1037; type: cell-based
Protocol: as §2, §3

[29] = test system: C. albicans 93-1226; assay: Candida growth inhibition, C. albicans 93-1226; type: cell-based; details: C. albicans 93-1226, fluconazole-resistant strain
Protocol: as §2, §3

[30] = test system: S. aureus 29213; assay: Anti-cell growth activity, S. aureus 29213; type: cell-based
Protocol: as §4

[31] = test system: C. albicans strain #64 (sensitive to fluconazole); parameters: species or system mice; details: mouse, in vivo
Protocol: Immunocompetent mice (ICR, Sprague-Dawley, Indianapolis, Ind.) are infected with a pathogenic strain (e.g., strain #64) of C. albicans that is sensitive to fluconazole. After 24 hours, dissemination of infection has been shown by organ colony counts (kidney, spleen, and liver) greater than 10^5 colony forming units (CFU). Treatment is begun 24 hours after infection with dosage once a day for 10 days. Untreated control mice usually die after about 16 days. After 30 days the percent survival in the group treated with fluconazole (40 mg per kg body weight, twice a day) is about 30%. In addition to measuring animal viability, the organ fungal load (in CFU) can measured.

[32] = test system: C. albicans UTR-14 (fluconazole-resistant clinical isolate); assay: Fluconazole-resistant candidiasis in mice; type: in vivo; details: fluconazole-resistant C. albicans UTR-14, 40 mg per kg body weight p.o. twice daily
Protocol: In a similar experiment using a fluconazole-resistant clinical isolate (e.g., C. albicans UTR-14), the percent survival after 20 days of the group treated with fluconazole (40 mg per kg body weight p.o. (twice daily)) and in the untreated group is each usually 0%.

COC(=O)CCCCCCC/C=C\C#CC#Cc1ccco1 [Compound 7]
MIC [1]: 0.125 µg/mL (≈ 0.419 µM) | IC50 ([2]; C. albicans DSY1024 (Table 4)): 0.19 µg/mL (≈ 0.637 µM) | MIC ([2]; C. albicans DSY1024 (Table 4)): 0.25 µg/mL (≈ 0.838 µM) | inhibition of growth of strain SC5314 [3]: able to inhibit growth | IC50 ([3]; C. albicans SC5314 (Table 4)): 0.221 µg/mL (≈ 0.741 µM) | MIC ([3]; C. albicans SC5314 (Table 4)): 0.25 µg/mL (≈ 0.838 µM) | MIC [4]: 0.125 µg/mL (≈ 0.419 µM) | anti-Candida activity (ranking by backbone length X) [5]: greatest anti-Candida activity | MIC [6]: 0.125 µg/mL (≈ 0.419 µM) | MIC [7]: 0.125 µg/mL (≈ 0.419 µM)

O=C(O)CCCCCCC/C=C/C#CC#Cc1ccco1 [Compound 1]
IC50 [8]: 0.0011 µg/mL (≈ 0.00387 µM) | IC50 [9]: 0.00467 µg/mL (≈ 0.0164 µM) | MIC [9]: 0.005 µg/mL (≈ 0.0176 µM) | IC50 [10]: 50 to 100 µg/mL | MIC [10]: 200 µg/mL (≈ 703 µM) | MIC [1]: 0.001 µg/mL (≈ 0.00352 µM) | IC50 [11]: 12 µg/mL (≈ 42.2 µM) | MIC [12]: >200 µg/mL | IC50 [13]: 0.00313 to 0.00625 µg/mL | MIC [13]: 0.0125 µg/mL (≈ 0.044 µM) | MIC ([2]; C. albicans DSY1024): 0.0025 µg/mL (≈ 0.00879 µM) | IC50 [14]: 0.5 to 1.0 µg/mL | MIC [14]: 1 µg/mL (≈ 3.52 µM) | IC50 [15]: 7.5 µg/mL (≈ 26.4 µM) | MIC [15]: 12.5 µg/mL (≈ 44 µM) | MIC ([3]; C. albicans SC5314): 0.000625 µg/mL and 0.00125 µg/mL | IC50 [16]: 0.00122 µg/mL (≈ 0.00429 µM) | IC50 [17]: 0.18 µg/mL (≈ 0.633 µM) | MIC [17]: 0.25 µg/mL (≈ 0.879 µM) | IC50 [18]: 0.0419 µg/mL (≈ 0.147 µM) | MIC [18]: 0.05 µg/mL (≈ 0.176 µM) | IC50 [19]: 0.00364 µg/mL (≈ 0.0128 µM) | MIC [19]: 0.0025 µg/mL (≈ 0.00879 µM) | MIC [4]: 0.001 µg/mL (≈ 0.00352 µM) | anti-Candida activity (ranking by backbone length X) [5]: greatest anti-Candida activity | MIC [6]: 0.001 µg/mL (≈ 0.00352 µM) | IC50 [20]: 0.00296 µg/mL (≈ 0.0104 µM) | MIC [20]: 0.005 µg/mL (≈ 0.0176 µM) | IC50 values, fungal growth, lower end of range [21]: ≥ 0.18 µg/mL | IC50 values, all tested Candida strains [22]: 0.00035 to 0.042 µg/mL | IC50 [23]: 0.00825 µg/mL (≈ 0.029 µM) | MIC [23]: 0.0125 µg/mL (≈ 0.044 µM) | MIC [24]: 0.01 µg/mL (≈ 0.0352 µM) | IC50 [25]: 0.0261 µg/mL (≈ 0.0918 µM) | MIC [25]: 0.05 µg/mL (≈ 0.176 µM) | IC50 [26]: 0.00145 µg/mL (≈ 0.0051 µM) | MIC [26]: 0.005 µg/mL (≈ 0.0176 µM) | IC50 [27]: 0.0125 to 0.025 µg/mL | MIC [27]: 0.005 µg/mL (≈ 0.0176 µM) | IC50 [28]: 0.00368 µg/mL (≈ 0.0129 µM) | MIC [28]: 0.005 µg/mL (≈ 0.0176 µM) | IC50 [29]: 0.0021 µg/mL (≈ 0.00739 µM) | MIC [29]: 0.0025 µg/mL (≈ 0.00879 µM) | MIC [7]: 0.001 µg/mL (≈ 0.00352 µM) | IC50 [30]: 31.6 µg/mL (≈ 111 µM) | MIC [30]: 50 µg/mL (≈ 176 µM)

C/C=C\C#CC#C/C=C/C(O)CCCCCCCC(=O)O (stereo not drawn) [Compound 6]
IC50 ([2]; C. albicans DSY1024 (Table 4)): 11.3 µg/mL (≈ 39.2 µM) | MIC ([2]; C. albicans DSY1024 (Table 4)): 12.5 µg/mL (≈ 43.3 µM) | inhibition of growth of strain SC5314 [3]: able to inhibit growth | IC50 ([3]; C. albicans SC5314 (Table 4)): 8.5 µg/mL (≈ 29.5 µM) | MIC ([3]; C. albicans SC5314 (Table 4)): 12.5 µg/mL (≈ 43.3 µM)

OC(Cn1cncn1)(Cn1cncn1)c1ccc(F)cc1F [fluconazole]
percent survival after 30 days [31]: about 30% | percent survival after 20 days [32]: 0%
